23 molecules from patent US6083917A, “Methods and compositions for the identification, characterization and inhibition of farnesyltransferase” (Board of Regents, The University of Texas System, priority 1992, dated 2000) can be followed below.

Test [1] has as its target T1, rat brain farnesyltransferase (Rattus norvegicus, UniProt Q02293+Q04631). As to the kind of experiment: Farnesyltransferase assay: transfer of [3H]farnesyl from [3H]FPP to p21H-ras (TCA filter assay), competition by peptides. Format: biochemical. Also noted: Brains from 50 male Sprague-Dawley rats (100-150 g) were homogenized; from tissue; host or cells: rat brain (male Sprague-Dawley rats). The method, then: Farnesyltransferase activity was determined by measuring the amount of ^3 H-farnesol transferred from all-trans ^3 H]farnesyl pyrophosphate ([^3 H]FPP) to p21^H-ras protein. The standard reaction mixture contained the following concentrations of components in a final volume of 25 μl: 50 mM Tris-chloride (pH 7.5), 50 μM ZnCl2, 20 mM KCl, 1 mM DTT, and 40 μM p21^H-ras. The mixture also contained 10 pmoles of [^3 H]FPP (~30,000 dpm/pmol) and 1.8-3.5 μg of partially purified farnesyltransferase (see below). After incubation for 1 hour at 37° C. in 12×75-mm borosilicate tubes, the reaction was stopped by addition of 0.5 ml of 4% SDS and then 0.5 ml of 30% trichloroacetic acid (TCA).
The tubes were vortexed and left on ice for 45-60 min, after which 2 ml of a 6% TCA/2% SDS solution were added. The mixture was filtered on a 2.5-cm glass fiber filter with a Hoefer filtration unit (FH 225). The tubes were rinsed twice with 2 ml of the same solution, and each filter was washed five times with 2 ml of 6% TCA, dried, and counted in a scintillation counter. One unit of activity is defined as the amount of enzyme that transfers 1 pmol of [^3 H]farnesol from [^3 H]FPP into acid-precipitable p21^H-ras per hour under the standard conditions.
The standard assay involved measuring the amount of [^3 H]farnesyl transferred from all-trans [^3 H]FPP to recombinant human p21^H-ras as described in Example I. Each reaction mixture contained the following concentrations of components in a final volume of 25 μl: 50 mM Tris-chloride (pH 7.5), 50 μM ZnCl2, 30 mM KCl, 1 mM DTT, 30 or 40 μM p21^H-ras, 15 pmol [^3 H]FPP (12-23,000 dpm/pmol), 4 to 7.5 μg of partially purified farnesyltransferase (Mono Q fraction, see Example I), and the indicated concentration of competitor peptide added in 3 μl of 10 mM DTT. […] This blank value was subtracted before calculating "% of control" values.
The amount of [^3 H]farnesyl transferred from all-trans-[^3 H]farnesyl pyrophosphate to recombinant p21^H-ras was measured in a filter assay as previously described (62).

The target of test [2] is T1, rat brain farnesyltransferase. The test can be described thus: Binding of prenyl pyrophosphates to protein farnesyltransferase (gel filtration). The settings on record: purified enzyme. Also noted: Protein farnesyltransferase was purified to apparent homogeneity from rat brain homogenates; from tissue; host or cells: rat brain. The source says: Transfer of the enzyme-bound farnesyl group to the bound p21^H-ras required Mg^2+. […] It also was not transferred to a modified p21^H-ras containing COOH-terminal leucine, a protein that was shown previously to be a good substrate for a rat brain geranylgeranyltransferase (35). The inventors conclude that the protein farnesyltransferase is a metalloenzyme that most likely contains Zn^2+ at the peptide-binding site. It thus resembles certain metallopeptidases, including carboxy-peptidase A and the angiotensin-converting enzyme. Strategies previously developed to screen for inhibitors of those enzymes will likely aid in the search for inhibitors of the protein farnesyltransferase.
In general terms: SEC sorts molecules by how far they enter the pores of the column.

Test [3] has the same target. As to the kind of experiment: Farnesyltransferase assay: transfer of [3H]farnesyl from [3H]FPP to p21H-ras (TCA filter assay), competition by peptides. Format: biochemical. Also noted: Brains from 50 male Sprague-Dawley rats (100-150 g) were homogenized; from tissue; host or cells: rat brain (male Sprague-Dawley rats). Particulars: Concentration giving 50% inhibition of farnesylation of p21H-ras, FIG. 23A; Mono Q fraction, 0.5 μM [3H]farnesyl pyrophosphate, 30 min at 37° C.

Setting [4] is: Table III, six concentrations 0.03 to 10 μM, read-out: Concentration for 50% Inhibition of Farnesylation of p21H-ras.
Where [5] appears, read: Table II, partially purified rat farnesyltransferase, p21H-ras acceptor, seven concentrations 0.03 to 100 μM, read-out: Concentration for 50% Inhibition.
Setting [6] is: Concentration giving 50% inhibition of farnesyltransferase (text, FIG. 14 / Table II), Example II, partially purified rat brain enzyme, p21H-ras acceptor.

Where two headings read alike, the source gives them in different places. Residues, ends and D or L forms follow the SMILES beside them. No end group written: not given here. *: point of attachment. Octanoyl = CCCCCCCC(=O)*

T1 sequence (Q02293 whole entry, one chain of several): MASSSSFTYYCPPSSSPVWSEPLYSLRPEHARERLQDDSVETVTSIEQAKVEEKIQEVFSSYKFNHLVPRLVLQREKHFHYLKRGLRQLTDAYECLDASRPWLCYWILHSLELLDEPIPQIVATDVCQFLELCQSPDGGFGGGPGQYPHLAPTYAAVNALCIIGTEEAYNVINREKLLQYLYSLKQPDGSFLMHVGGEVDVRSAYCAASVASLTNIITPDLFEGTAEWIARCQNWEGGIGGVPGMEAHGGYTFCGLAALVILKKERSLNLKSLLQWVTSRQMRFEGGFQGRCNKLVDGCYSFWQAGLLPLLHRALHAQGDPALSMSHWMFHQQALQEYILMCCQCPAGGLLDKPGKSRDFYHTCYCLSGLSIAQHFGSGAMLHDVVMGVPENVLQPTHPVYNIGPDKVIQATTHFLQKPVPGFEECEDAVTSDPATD

As for Ac-SCVFM [N-AcSCVFM], in test [1] (setting [4]), the IC50 was found to be 230 nM.
Consider `CSCC[C@H](NC(=O)[C@H](Cc1c[nH]c2ccccc12)NC(=O)[C@@H](NC(=O)[C@@H](N)CS)C(C)C)C(=O)O` [CVWM] (H-CVWM-OH), for which the IC50 in test [1] (setting [4]) came to 320 nM.
For the molecule `CC[C@H](C)[C@H](NC(=O)[C@@H](NC(=O)[C@@H](N)CS)[C@@H](C)CC)C(=O)N[C@@H](CCSC)C(=O)O` [CIIM] (H-CIIM-OH), the IC50 in test [1] (setting [5]) was 150 nM.
With `CC(C)=CCC/C(C)=C/CC/C(C)=C/COP(=O)(O)OP(=O)(O)O` [[^3 H]farnesyl pyrophosphate, farnesyl pyrophosphate, reference compound], in test [1] (substrate saturation, FIG. 2A and 2B), the “Concentration that gave half-maximal reaction velocity” value was “approximately 0.5 μM”.
For Ac-MCVFM [N-AcMCVFM], in test [1] (setting [4]), the IC50 worked out at 1400 nM.
Consider Ac-HCVFM [N-AcHCVFM], for which the IC50 in test [1] (setting [4]) was found to be 240 nM.
On the same count and under the same terms, as for `CCCCCCCC(=O)N[C@@H](CS)C(=O)N[C@H](C(=O)N[C@@H](Cc1ccccc1)C(=O)N[C@@H](CCSC)C(=O)O)C(C)C` [N-Octanoyl-CVFM] (Octanoyl-CVFM-OH), the figure is 350 nM; as for Ac-KCVFM [N-AcKCVFM], 300 nM; as for `CSCC[C@H](NC(=O)[C@H](Cc1ccccc1)NC(=O)[C@@H](NC(=O)[C@H](CS)NC(=O)[C@H](CS)NC(C)=O)C(C)C)C(=O)O` [N-AcCCVFM] (Ac-CCVFM-OH), 110 nM.
Still for that read-out and setting: as for Ac-GCVFM [N-AcGCVFM], the figure is 430 nM; as for `CSCC[C@H](NC(=O)[C@H](Cc1ccccc1)NC(=O)[C@@H](NC(=O)[C@H](CS)NC(=O)[C@@H](N)CS)C(C)C)C(=O)O` [CCVFM] (H-CCVFM-OH), 440 nM.
Turning to `CC[C@H](C)[C@H](NC(=O)[C@H](C)NC(=O)[C@@H](N)CS)C(=O)N[C@@H](CCSC)C(=O)O` [CAIM] (H-CAIM-OH), the IC50 in test [1] (setting [6]) and in test [1] (setting [5]) was 150 nM in each case.
Ac-ECVFM [N-AcECVFM]: the IC50 in test [1] (setting [4]) was 2400 nM.
As to Ac-DCVFM [N-AcDCVFM], the IC50 in test [1] (setting [4]) came out at 1900 nM.
Regarding `CSCC[C@H](NC(=O)[C@@H](NC(=O)[C@@H](NC(=O)[C@@H](N)CS)C(C)C)C(C)C)C(=O)O` [CVVM] (H-CVVM-OH), the IC50 in test [1] (setting [5]) came to 150 nM.
For the molecule `CC(C)=CCC/C(C)=C/CC/C(C)=C/CC/C(C)=C/COP(=O)(O)OP(=O)(O)O` [Geranylgeranyl pyrophosphate], the “Affinity for the prenyl pyrophosphate binding site” value in test [2] was “affinity equal to that of farnesyl pyrophosphate”.
For the molecule `CC[C@H](C)[C@H](NC(=O)[C@@H](NC(=O)[C@H](CS)NC(C)=O)C(C)C)C(=O)N[C@@H](CCSC)C(=O)O` [N-AcCVIM] (Ac-CVIM-OH), the IC50 in test [1] (setting [4]) worked out at 150 nM.
Same read-out and setting: next, Ac-PCVFM [N-AcPCVFM]: 200 nM.
With `CSCC[C@H](NC(=O)[C@H](Cc1ccccc1)NC(=O)[C@@H](NC(=O)[C@H](CS)NC(C)=O)C(C)C)C(=O)O` [N-AcCVFM] (Ac-CVFM-OH), the IC50 in test [3] is 270 nM; in test [1] (setting [4]), 250 nM.
Take `CC[C@H](C)[C@H](NC(=O)[C@H](CO)NC(=O)[C@@H](N)CS)C(=O)N[C@@H](CCSC)C(=O)O` [CSIM] (H-CSIM-OH): the IC50 in test [1] (setting [5]) turned out to be 200 nM.
With KCVFM [KCVFM], the IC50 in test [1] (setting [4]) is 1100 nM.
`CC[C@H](C)[C@H](NC(=O)[C@@H](NC(=O)[C@@H](N)CS)C(C)C)C(=O)N[C@@H](CCSC)C(=O)O` [CVIM] (H-CVIM-OH): the IC50 in test [1] (setting [6]), in test [1] (setting [5]) and in test [1] (setting [4]) was 150 nM in each case.
Consider `CSCC[C@H](NC(=O)[C@H](Cc1c[nH]c2ccccc12)NC(=O)[C@@H](NC(=O)[C@H](CS)NC(C)=O)C(C)C)C(=O)O` [N-AcCVWM] (Ac-CVWM-OH), for which the IC50 in test [1] (setting [4]) was found to be 3700 nM.
